Laboratory results published in the supplement of paper PMC10307832.

Legend:
Experiment in all cases: relative viability (nuclei count vs DMSO), 5 days (fraction); higher = more cells survive
GSK-J4 + Olaparib = compound: CCOC(=O)CCNc1cc(N2CCc3ccccc3CC2)nc(-c2ccccn2)n1 [GSK-J4] + O=C(c1cc(Cc2n[nH]c(=O)c3ccccc23)ccc1F)N1CCN(C(=O)C2CC2)CC1 [Olaparib] (partner 8 µM)
Method in brief: (§1)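 Lung cancer cell lines were seeded in 1536-well plates and dosed by pin tool the next day, with either a single drug or a fixed anchor-drug dose combined with five library-drug doses (not always all listed) spaced in √10 steps. Five days later, one step fixed the cells and stained their nuclei (final 0.05% Triton X-100, 1% formaldehyde, 1 ug/ml Hoechst), and nuclei were counted on 4× images. Relative viability is the nuclei count in treated wells divided by the count in vehicle wells, and each value is the median of duplicate plates.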

GSK-J4 + Pictilisib = compound: CCOC(=O)CCNc1cc(N2CCc3ccccc3CC2)nc(-c2ccccn2)n1 [GSK-J4] + CS(=O)(=O)N1CCN(Cc2cc3nc(-c4cccc5[nH]ncc45)nc(N4CCOCC4)c3s2)CC1 [Pictilisib] (partner 1 µM)
Method in brief: as §1

AZ3146 + Dasatinib = compound: CN1CCC(CC1)OC2=CC(=C(C=C2)NC3=NC=C4C(=N3)N(C(=O)N4C)C5CCCC5)OC [AZ3146] + Cc1nc(Nc2ncc(C(=O)Nc3c(C)cccc3Cl)s2)cc(N2CCN(CCO)CC2)n1 [Dasatinib] (partner 0.075 µM)
Method in brief: as §1

GSK-J4 + Bortezomib = compound: CCOC(=O)CCNc1cc(N2CCc3ccccc3CC2)nc(-c2ccccn2)n1 [GSK-J4] + CC(C)C[C@H](NC(=O)[C@H](Cc1ccccc1)NC(=O)c1cnccn1)B(O)O [Bortezomib] (partner 0.002 µM)
Method in brief: as §1

Row | Cell Line | relative viability (GSK-J4 + Olaparib; first compound 0.5 µM) | relative viability (GSK-J4 + Olaparib; first compound 1.581 µM) | relative viability (GSK-J4 + Olaparib; first compound 5 µM) | relative viability (GSK-J4 + Olaparib; first compound 15.81 µM) | relative viability (GSK-J4 + Olaparib; first compound 50 µM) | relative viability (GSK-J4 + Pictilisib; first compound 0.5 µM) | relative viability (GSK-J4 + Pictilisib; first compound 1.581 µM) | relative viability (GSK-J4 + Pictilisib; first compound 5 µM) | relative viability (GSK-J4 + Pictilisib; first compound 15.81 µM) | relative viability (GSK-J4 + Pictilisib; first compound 50 µM) | relative viability (AZ3146 + Dasatinib; first compound 0.08 µM) | relative viability (AZ3146 + Dasatinib; first compound 0.253 µM) | relative viability (AZ3146 + Dasatinib; first compound 0.8 µM) | relative viability (AZ3146 + Dasatinib; first compound 2.53 µM) | relative viability (AZ3146 + Dasatinib; first compound 8 µM) | relative viability (GSK-J4 + Bortezomib; first compound 0.5 µM) | relative viability (GSK-J4 + Bortezomib; first compound 1.581 µM) | relative viability (GSK-J4 + Bortezomib; first compound 5 µM) | relative viability (GSK-J4 + Bortezomib; first compound 15.81 µM) | relative viability (GSK-J4 + Bortezomib; first compound 50 µM)
1 | 201T | 0.81 | 0.581 | 0.831 | 0.797 | 0.81 | 0.653 | 0.791 | 0.726 | 0.687 | 0.598 | 0.548 | 0.59 | 0.511 | 0.609 | 0.625 | 1.03 | 1.08 | 1.05 | 1.14 | 1.09
2 | A549 | 0.32 | – | 0.29 | 0.31 | 0.392 | 0.43 | – | 0.573 | 0.488 | 0.332 | – | – | – | – | – | – | – | – | – | –
3 | A-427 | 0.714 | 0.701 | – | 0.66 | 0.295 | 0.703 | – | 0.688 | 0.613 | 0.675 | 0.561 | 0.775 | 0.651 | 0.828 | 0.66 | 0.937 | – | 0.839 | 0.781 | 0.789
4 | ABC-1 | 0.981 | 0.929 | 0.605 | 0.651 | 0.488 | 0.686 | 0.591 | 0.671 | 0.648 | 0.436 | 0.493 | 0.56 | 0.562 | 0.713 | 0.421 | 0.329 | 0.246 | 0.258 | 0.328 | 0.327
5 | BEN | 1.18 | 0.99 | 0.776 | 0.954 | 0.779 | 0.666 | 0.471 | – | 0.539 | 0.33 | – | 0.228 | 0.353 | 0.322 | 0.362 | 0.898 | 0.719 | – | 0.857 | 0.735
6 | CAL-12T | 0.668 | 0.63 | 0.772 | 0.673 | 0.548 | 0.622 | 0.425 | 0.626 | 0.418 | 0.454 | 0.453 | 0.517 | 0.369 | 0.377 | 0.192 | 1.06 | 0.834 | 0.785 | 1.01 | 0.941
7 | COR-L23 | 0.279 | 0.311 | – | 0.306 | 0.293 | 0.731 | 0.532 | – | 0.606 | 0.566 | 0.425 | 0.527 | 0.509 | 0.457 | 0.313 | 0.944 | 0.815 | – | 1.01 | 0.729
8 | COR-L 105 | 0.701 | – | 0.641 | 0.672 | 0.764 | 0.519 | 0.414 | 0.375 | 0.402 | 0.36 | 0.394 | 0.261 | 0.238 | 0.288 | 0.191 | 0.851 | 0.521 | 0.605 | 0.734 | 0.856
9 | Calu-6 | 0.559 | 0.567 | 0.587 | 0.53 | 0.608 | 0.825 | 0.874 | 0.895 | 0.88 | 0.807 | – | – | – | – | – | 0.884 | 0.912 | 1.08 | 1.13 | 0.898
10 | ChaGo-K-1 | 0.384 | – | 0.441 | 0.354 | 0.275 | 0.864 | – | 0.655 | 0.82 | 0.596 | 0.614 | 0.554 | 0.512 | 0.6 | 0.45 | 1.21 | – | 0.913 | 0.972 | 0.931
11 | EBC-1 | 0.603 | 0.567 | 0.676 | 0.655 | 0.453 | 0.376 | 0.336 | 0.451 | 0.416 | 0.257 | – | – | – | – | – | 0.436 | 0.526 | 0.441 | 0.61 | 0.346
12 | EKVX | 0.867 | – | 0.859 | 0.681 | 0.703 | 0.343 | 0.536 | 0.619 | 0.424 | 0.397 | 0.434 | 0.572 | 0.5 | 0.565 | 0.535 | 0.981 | 0.961 | 1.28 | 1.01 | 0.963
13 | EMC-BAC-2 | 0.403 | 0.461 | 0.407 | 0.444 | 0.391 | 0.627 | 0.597 | 0.423 | 0.598 | 0.52 | 0.273 | 0.366 | 0.38 | 0.372 | 0.354 | 1.08 | 0.944 | 0.811 | 0.965 | 1.08
14 | EPLC-272H | 0.722 | 0.825 | 0.676 | 0.652 | 0.289 | 0.428 | – | 0.35 | 0.275 | 0.219 | – | 0.396 | 0.347 | 0.413 | 0.287 | 0.864 | – | 1.01 | 0.851 | 0.936
15 | H3255 | 0.553 | 0.521 | 0.523 | 0.445 | 0.362 | 0.415 | 0.414 | 0.498 | 0.412 | 0.424 | 0.258 | 0.242 | 0.339 | 0.374 | 0.405 | 0.858 | 0.632 | 0.655 | 0.579 | 0.603
16 | HARA | 0.767 | 0.761 | – | 0.888 | 0.343 | 0.375 | 0.443 | – | 0.524 | 0.156 | 0.274 | 0.211 | 0.254 | 0.217 | 0.302 | 1.1 | 1 | – | 1.09 | 1.08
17 | HCC-15 | 0.702 | 0.632 | 0.644 | 0.644 | 0.424 | 0.743 | 0.353 | 0.784 | 0.666 | 0.473 | 0.727 | 0.64 | 0.597 | 0.557 | 0.491 | 1.01 | 0.527 | 0.943 | 1.01 | 0.906
18 | HCC-44 | 0.945 | 0.945 | 0.999 | 1.08 | 0.906 | 0.665 | 0.57 | 0.498 | 0.553 | 0.442 | – | – | – | – | – | 0.842 | 0.86 | 0.916 | 0.892 | 0.934
